Results on 23 compounds are retold here after PubChem BioAssay AID328 (DTP/NCI, 2004).

SMILES strings stand for the structures. Several values for one entry are separate records, joined by “and”; a condition that tells them apart may be missing. Equal entries are not always repeated. Inconclusive results and toxic doses are left out.

In this assay the test system is BDF1 mice, P388 leukemia ip, median survival T/C. Kind of assay: NCI In Vivo Anticancer Drug Screen. Data for tumor model P388 Leukemia (intraperitoneal) in B6D2F1 (BDF1) mice. The following applies: endpoint: median survival time, higher = longer survival. An outline of the steps:
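Mice carrying the transplantable tumour receive compound or vehicle. Survival is followed in each arm, and the treated measure is divided by the vehicle measure.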

Setting [1] is: dose: 25.0 mg/kg/injection, schedule: Q01DX009 (ip), vehicle: saline with Tween-80.
Where [2] appears, read: dose: 50.0 mg/kg/injection, schedule: Q01DX009 (ip), vehicle: saline with Tween-80.
[3] abbreviates: dose: 100.0 mg/kg/injection, schedule: Q01DX009 (ip), vehicle: saline with Tween-80.
Where [4] appears, read: dose: 200.0 mg/kg/injection, schedule: Q01DX009 (ip), vehicle: saline with Tween-80.
[5] abbreviates: dose: 400.0 mg/kg/injection, schedule: Q01DX009 (ip), vehicle: saline with Tween-80.
The mark [6] stands for this setting: dose: 50.0 mg/kg/injection, schedule: Q04DX003 (ip), vehicle: saline with Tween-80.
[7] abbreviates: dose: 100.0 mg/kg/injection, schedule: Q04DX003 (ip), vehicle: saline with Tween-80.
The mark [8] stands for this setting: dose: 200.0 mg/kg/injection, schedule: Q04DX003 (ip), vehicle: saline with Tween-80.
[9] abbreviates: dose: 400.0 mg/kg/injection, schedule: Q04DX003 (ip), vehicle: saline with Tween-80.
The mark [10] stands for this setting: dose: 12.5 mg/kg/injection, schedule: Q01DX009 (ip), vehicle: saline with Tween-80.
[11] abbreviates: dose: 50.0 mg/kg/injection, schedule: Q01DX009 (ip), vehicle: saline.
The mark [12] stands for this setting: dose: 100.0 mg/kg/injection, schedule: Q01DX009 (ip), vehicle: saline.
[13] abbreviates: dose: 200.0 mg/kg/injection, schedule: Q01DX009 (ip), vehicle: saline.
[14] abbreviates: dose: 100.0 mg/kg/injection, schedule: Q04DX003 (ip), vehicle: saline.
[15] abbreviates: dose: 200.0 mg/kg/injection, schedule: Q04DX003 (ip), vehicle: saline.
Setting [16] is: dose: 400.0 mg/kg/injection, schedule: Q01DX009 (ip), vehicle: saline.
Where [17] appears, read: dose: 400.0 mg/kg/injection, schedule: Q04DX003 (ip), vehicle: saline.
The mark [18] stands for this setting: dose: 6.25 mg/kg/injection, schedule: Q01DX009 (ip), vehicle: saline with Tween-80.

In the case of `CCC(c1ccc(OC(=O)Cc2ccc(N(CCCl)CCCl)cc2)cc1)C(CC)c1ccc(OC(=O)Cc2ccc(N(CCCl)CCCl)cc2)cc1` (configuration not stated), the T/C runs as follows: under setting [1], 96 % of control; under setting [2], 104 % of control; (dose: 64.0 mg/kg/injection, schedule: Q01DX009 (ip), vehicle: saline with Tween-80) 92 % of control and 100 % of control; under setting [3], 104 % of control; (dose: 128.0 mg/kg/injection, schedule: Q01DX009 (ip), vehicle: saline with Tween-80) 92 % of control and 98 % of control; under setting [4], 98 % of control. For the same compound, the T/C reads like this: (dose: 256.0 mg/kg/injection, schedule: Q01DX009 (ip), vehicle: saline with Tween-80) 93 % of control and 99 % of control; under setting [5], 107 % of control; (dose: 512.0 mg/kg/injection, schedule: Q01DX009 (ip), vehicle: saline with Tween-80) 98 % of control and 104 % of control.

As for `Cc1sc2ncnc(N)c2c1C`, the T/C under setting [6] is 103 % of control, the T/C under setting [7] was 105 % of control, the T/C under setting [8] is 94 % of control and the T/C under setting [9] is 105 % of control.

With `Cc1cc2c3ccccc3ccc2[n+]2ccccc12`, the T/C is, setting by setting: (dose: 4.1 mg/kg/injection, schedule: Q01DX009 (ip), vehicle: saline) 120 % of control; (dose: 9.37 mg/kg/injection, schedule: Q01DX009 (ip), vehicle: saline) 161 % of control; (dose: 18.75 mg/kg/injection, schedule: Q01DX009 (ip), vehicle: saline) 171 % of control and 180 % of control; (dose: 28.12 mg/kg/injection, schedule: Q01DX009 (ip), vehicle: saline) 190 % of control; (dose: 37.5 mg/kg/injection, schedule: Q04DX003 (ip), vehicle: alcohol) 112 % of control.

`ClC1(Cl)Cc2ccccc21`: the T/C is 109 % of control under setting [7]; 108 % of control (dose: 266.0 mg/kg/injection, schedule: Q04DX003 (ip), vehicle: saline with Tween-80); 108 % of control under setting [9]; 120 % of control (dose: 600.0 mg/kg/injection, schedule: Q04DX003 (ip), vehicle: saline with Tween-80).

Regarding `OC1c2cc(Cl)ccc2-c2c(Cl)cc(Cl)cc21` (configuration not stated), the T/C under setting [2] was 104 % of control; the T/C under setting [3] is 100 % of control; the T/C under setting [7] is 91 % of control; the T/C under setting [4] was 108 % of control; the T/C under setting [8] is 100 % of control.

Take `C=CCCN1CCCC1`: the T/C runs as follows: under setting [10], 88 % of control; (dose: 12.5 mg/kg/injection, schedule: Q04DX003 (ip), vehicle: saline with Tween-80) 100 % of control; under setting [1], 100 % of control; (dose: 25.0 mg/kg/injection, schedule: Q04DX003 (ip), vehicle: saline with Tween-80) 100 % of control; under setting [6], 95 % of control.

Consider `COC(=O)C(C)CN1CCCCCC1` (configuration not stated), for which the T/C by setting is: under setting [11], 109 % of control; under setting [12], 90 % of control; under setting [13], 109 % of control.

For `CC(C)(C)C1CCC(O)C(Cl)C1` (configuration not stated), the T/C is 95 % of control (dose: 50.0 mg/kg/injection, schedule: Q04DX003 (ip), vehicle: Klucel (hydroxypropylcellulose) (HPC)); 109 % of control (dose: 100.0 mg/kg/injection, schedule: Q04DX003 (ip), vehicle: Klucel (hydroxypropylcellulose) (HPC)); 109 % of control (dose: 200.0 mg/kg/injection, schedule: Q04DX003 (ip), vehicle: Klucel (hydroxypropylcellulose) (HPC)).

As for `CC1=CCCC1`, the T/C reads like this: under setting [12], 118 % of control; under setting [14], 113 % of control; under setting [13], 118 % of control; under setting [15], 104 % of control; under setting [16], 118 % of control; under setting [17], 104 % of control.

On to `O=CC(OC(=O)c1ccccc1)C(OC(=O)c1ccccc1)C(COC(c1ccccc1)(c1ccccc1)c1ccccc1)OC(=O)c1ccccc1` (configuration not stated), for which the T/C was 110 % of control under setting [1]; 110 % of control under setting [2]; 120 % of control under setting [3]; 100 % of control and 108 % of control under setting [4].

Consider `CC(C(=O)O)=C(c1ccccc1)c1ccccc1`, for which the T/C runs as follows: (dose: 100.0 mg/kg/injection, schedule: Q01DX001 (ip), vehicle: saline with Tween-80) 100 % of control; (dose: 200.0 mg/kg/injection, schedule: Q01DX001 (ip), vehicle: saline with Tween-80) 100 % of control; (dose: 400.0 mg/kg/injection, schedule: Q01DX001 (ip), vehicle: saline with Tween-80) 100 % of control.

Take `Nc1nc(C=O)c(CCc2ccccc2)c(=O)[nH]1`: the T/C under setting [6] is 113 % of control.

Turning to `O=C1NC(=O)C(=O)N1`, the T/C runs as follows: (dose: 100.0 mg/kg/injection, schedule: Q01DX001 (ip), vehicle: saline) 109 % of control; under setting [3], 100 % of control; under setting [12], 100 % of control; under setting [14], 110 % of control; (dose: 200.0 mg/kg/injection, schedule: Q01DX001 (ip), vehicle: saline) 100 % of control; under setting [4], 104 % of control. For the same compound, the T/C is 100 % of control under setting [13]; 95 % of control under setting [15]; 100 % of control (dose: 400.0 mg/kg/injection, schedule: Q01DX001 (ip), vehicle: saline); 95 % of control under setting [5]; 100 % of control under setting [16]; 120 % of control under setting [17].

`O=S(=O)(O)CCN(CCO)CCO`: the T/C is, setting by setting: under setting [12], 87 % of control; under setting [14], 109 % of control; under setting [15], 104 % of control; under setting [16], 87 % of control; under setting [17], 95 % of control.

With `O=NN(CCCl)C(=O)Nc1ccc2c3c(cccc13)-c1ccccc1-2`, the T/C (dose: 50.0 mg/kg/injection, schedule: Q01DX009 (ip), vehicle: Klucel (hydroxypropylcellulose) (HPC)) is 156 % of control and 157 % of control; the T/C (dose: 100.0 mg/kg/injection, schedule: Q01DX009 (ip), vehicle: Klucel (hydroxypropylcellulose) (HPC)) was 156 % of control and 157 % of control; the T/C (dose: 200.0 mg/kg/injection, schedule: Q01DX009 (ip), vehicle: Klucel (hydroxypropylcellulose) (HPC)) is 161 % of control and 170 % of control; the T/C (dose: 400.0 mg/kg/injection, schedule: Q01DX009 (ip), vehicle: Klucel (hydroxypropylcellulose) (HPC)) is 93 % of control.

Regarding `CC(=O)CC(=O)Nc1nc2ccccc2s1`, the T/C is 94 % of control under setting [11] and 105 % of control under setting [13].

For the compound `CC1(C)CC(=O)C(C(=O)Nc2ccc(Cl)cc2)C(=O)C1`, the T/C is 98 % of control under setting [2], 93 % of control under setting [3] and 89 % of control under setting [4].

Consider `COCCCNS(=O)(=O)c1ncnc2nc[nH]c12`, for which the T/C is, setting by setting: (dose: 132.0 mg/kg/injection, schedule: Q04DX003 (ip), vehicle: saline with Tween-80) 100 % of control; under setting [8], 100 % of control; (dose: 300.0 mg/kg/injection, schedule: Q04DX003 (ip), vehicle: saline with Tween-80) 100 % of control.

As for `CC1(C)CC(=O)OC(=O)C1`, the T/C was 93 % of control (dose: 3.13 mg/kg/injection, schedule: Q01DX009 (ip), vehicle: saline with Tween-80); 100 % of control under setting [18]; 95 % of control under setting [10]; 105 % of control under setting [1].

Regarding `N#CCC(NC(=O)OCc1ccccc1)C(=O)OCc1ccccc1` (configuration not stated), the T/C is, setting by setting: under setting [1], 100 % of control; under setting [2], 94 % of control; under setting [6], 96 % of control; under setting [3], 88 % of control; under setting [7], 105 % of control; under setting [4], 96 % of control. Moreover, the T/C was 94 % of control under setting [8], 96 % of control under setting [5] and 105 % of control under setting [9].

For the compound `O=C1OC(Cc2ccccc2)(c2ccccc2)c2ccccc21` (configuration not stated), the T/C is 90 % of control under setting [2] and 90 % of control under setting [3].

For `CCCCCCCCCCCCCCCCOc1c(Br)cc(Br)cc1Br`, under “dose: 50.0 mg/kg/injection, schedule: Q01DX001 (ip), vehicle: saline with Tween-80”, the T/C was 90 % of control.

With `COc1ccc(C2=NC(c3ccccc3)NC(c3ccccc3)/C2=C/c2ccccc2)cc1` (configuration not stated), the T/C runs as follows: under setting [18], 106 % of control; under setting [10], 99 % of control; under setting [1], 99 % of control; under setting [2], 91 % of control and 94 % of control; under setting [3], 95 % of control.
